NCC(CC(=O)O)c1ccc(Cl)cc1 (stereo not given)
solubility (mole fraction)
Conditions	in ethanol	in isopropanol	in methanol	in n-propanol	in propylene glycol
293.2 K	3.25e-05	5.77e-05	0.000123	5.6e-05	0.000216
298.2 K	4.17e-05	6.36e-05	0.000131	6.26e-05	0.000271
303.2 K	4.87e-05	7.64e-05	0.00014	6.34e-05	0.000345
308.2 K	5.39e-05	8.09e-05	0.000147	7.82e-05	0.000424
313.2 K	6.09e-05	8.85e-05	0.000173	8.22e-05	0.000485

— BigSolDB 2.1
